Measured values published in patent US9995734B2, “Human T cell line assay for evaluating the immunologic identity of glatiramer acetate preparations” (Mylan Inc., priority 2013, dated 2018).
Several values for one entry are separate records, joined by “and”; a condition that tells them apart may be missing. Identical values can stand only once.

Tests used:
Format in all cases: cell-based, human
Donor 3 COP T-Cell Lines = assay: ATP proliferation assay (CellTiter Glo), Donor 3 COP T-cell lines, incl. reactivity to non-canonical GA peptides; settings: for Non-Canonical Peptide Non-Reactivity: proliferation <2 times no antigen control
Donor 4 COP T-Cell Lines = assay: ATP proliferation assay (CellTiter Glo), Donor 4 COP T-cell lines, incl. reactivity to non-canonical GA peptides; settings: for Non-Canonical Peptide Non-Reactivity: proliferation <2 times no antigen control; for Proliferation (luminescent ATP assay), Mean: T-cell line 205-1F4, Day 71, autologous B-LCL; for Reactivity (proliferation), Mean: T-cell line 205-1H3, 0 μg/mL 4121.0
Donor 3 GMA T-Cell Lines = assay: ATP proliferation assay (CellTiter Glo), Donor 3 GMA T-cell lines, incl. reactivity to non-canonical GA peptides; settings: Day 50 of culturing
Donor 1 COP T-Cell Lines = assay: Multiplex bead cytokine assay (FlowCytoMix), Donor 1 COP T-cell lines; settings: 222-2D8, 222-1H12, 222-2F12; Day 56; 48 hours; 1, 3, 10 μg/mL
Description: Culture medium was removed from cultures prepared as for proliferation assay and utilized to measure cytokine production. In most cases culture medium was collected 18-24 hours after mixing T-cells, APC, and stimulating antigen. Cytokine production was measured by ELISA or bead assay. For measuring cytokine production, 100-150 μL culture medium (100 μL if culture was to be continued, otherwise 150 μL) was removed from each well. In some cases, the culture was continued 48 hours, for a total of 72 hours of culture, and the proliferative response measured.
The concentration of multiple cytokines was measured simultaneously using FlowCytoMix™ kits (eBioscience, San Diego Calif.). These are fluorescent bead based assays consisting of beads conjugated to anti cytokine antibodies. Beads specific for each cytokine are distinguished by size and fluorescence at 670 run. Cytokine bound to each bead is detected using a phycoerythrin conjugated antibody so that the fluorescence at 585 nm reflects the concentration of cytokine in the sample. Two kits were utilized which measured different cytokine panels. The TH1/TH2 kit measures IFN-γ, IL-1β, IL-2, IL-4, IL-5, IL-6, IL-8, IL-10, IL-12p70, TNF-α (TNF) and TNF-β (LT). The TH1/TH2/TH9/TH17/TH22 kit measures […], IL-1β, IL-2, IL-4, IL-5, IL-6, IL-9, IL-10, IL-12p70, IL-13, IL-17, IL-22, and TNF-α (TNF). Both kits were used following the manufacturer's instructions.
IL-12p70, IFN-γ, IL-2, IL-10, IL-8, IL-6, IL-5, IL-4, IL-1β, TNF-α (TNF), and TNF-β (LT) secretion were measured in response to stimulation with 1, 3, or 10 μg/mL GMA, or 1, 3, or 10 μg/mL COP, as well as a no-antigen control and an MBP control, in the presence of autologous EBV-transformed B-LCL.

poly (Glu-Ala; 6:4) [GA 64]
Non-Canonical Peptide Non-Reactivity (Donor 3 COP T-Cell Lines; 165-C4C): GA64 | Non-Canonical Peptide Non-Reactivity (Donor 3 COP T-Cell Lines; 165-F3C): GA 64 | Non-Canonical Peptide Non-Reactivity (Donor 3 COP T-Cell Lines; 165-F6C): GA64 | Nonreactive T-Cell Line (Donor 3 COP T-Cell Lines; Donor 3 COP lines, stimulation with the non-canonical GA peptide): 165-C4C (Donor 3) and 165-F3C (Donor 3) and 165-F6C (Donor 3) | Proliferation (luminescent ATP assay), Mean (Donor 3 COP T-Cell Lines; T-cell line 165-C4C, 1 μg/mL antigen, Day 66 of culture, 0 μg/mL 1881): 2205 | Proliferation (luminescent ATP assay), Mean (Donor 3 COP T-Cell Lines; T-cell line 165-C4C, 3 μg/mL antigen, Day 66 of culture, 0 μg/mL 1881): 2229 | Proliferation (luminescent ATP assay), Mean (Donor 3 COP T-Cell Lines; T-cell line 165-C4C, 10 μg/mL antigen, Day 66 of culture, 0 μg/mL 1881): 2244 | Proliferation (luminescent ATP assay), Mean (Donor 3 COP T-Cell Lines; T-cell line 165-F3C, 1 μg/mL antigen, Day 77 of culture, 0 μg/mL 1563): 1791 | Proliferation (luminescent ATP assay), Mean (Donor 3 COP T-Cell Lines; T-cell line 165-F3C, 3 μg/mL antigen, Day 77 of culture, 0 μg/mL 1563): 1943 | Proliferation (luminescent ATP assay), Mean (Donor 3 COP T-Cell Lines; T-cell line 165-F3C, 10 μg/mL antigen, Day 77 of culture, 0 μg/mL 1563): 1870 | Non-Canonical Peptide Non-Reactivity (Donor 4 COP T-Cell Lines; 205-1F4): GA 64 | Non-Canonical Peptide Non-Reactivity (Donor 4 COP T-Cell Lines; 205-1H3): GA 64 | Nonreactive T-Cell Line (Donor 4 COP T-Cell Lines; Donor 4 COP lines, stimulation with the non-canonical GA peptide): 205-1F4 (Donor 4) and 205-1H3 (Donor 4) | Proliferation (luminescent ATP assay), Mean (Donor 4 COP T-Cell Lines; 1 μg/mL antigen): 2544 | Proliferation (luminescent ATP assay), Mean (Donor 4 COP T-Cell Lines; 3 μg/mL antigen): 2261 | Proliferation (luminescent ATP assay), Mean (Donor 4 COP T-Cell Lines; 10 μg/mL antigen): 2080 | Reactivity (proliferation), Mean (Donor 4 COP T-Cell Lines; 1 μg/mL antigen): 4012.0 | Reactivity (proliferation), Mean (Donor 4 COP T-Cell Lines; 3 μg/mL antigen): 4246.0 | Reactivity (proliferation), Mean (Donor 4 COP T-Cell Lines; 10 μg/mL antigen): 2054.3

EKPKVEAYKAAAAPA [STERN]
Proliferation (luminescent ATP assay), Mean (Donor 3 GMA T-Cell Lines; T-cell line 165-05G, 1 μg/mL antigen, No Antigen Value 2149): 1750 RLU | Proliferation (luminescent ATP assay), Mean (Donor 3 GMA T-Cell Lines; T-cell line 165-05G, 3 μg/mL antigen, No Antigen Value 2149): 1606 RLU | Proliferation (luminescent ATP assay), Mean (Donor 3 GMA T-Cell Lines; T-cell line 165-05G, 10 μg/mL antigen, No Antigen Value 2149): 1650 RLU | Proliferation (luminescent ATP assay), Mean (Donor 3 GMA T-Cell Lines; T-cell line 165-05G, 30 μg/mL antigen, No Antigen Value 2149): 1572 RLU | Proliferation (luminescent ATP assay), Mean (Donor 3 GMA T-Cell Lines; T-cell line 165-E9G, 1 μg/mL antigen, No Antigen Value 1742): 1673 RLU | Proliferation (luminescent ATP assay), Mean (Donor 3 GMA T-Cell Lines; T-cell line 165-E9G, 3 μg/mL antigen, No Antigen Value 1742): 1480 RLU | Proliferation (luminescent ATP assay), Mean (Donor 3 GMA T-Cell Lines; T-cell line 165-E9G, 30 μg/mL antigen, No Antigen Value 1742): 1487 RLU | Proliferation (luminescent ATP assay), Mean (Donor 3 GMA T-Cell Lines; T-cell line 165-E9G, 10 μpg/mL antigen, No Antigen Value 1742): 1471 RLU | Proliferation (luminescent ATP assay), Mean (Donor 3 GMA T-Cell Lines; T-cell line 165-F10G, 1 μg/mL antigen, No Antigen Value 3752): 2465 RLU | Proliferation (luminescent ATP assay), Mean (Donor 3 GMA T-Cell Lines; T-cell line 165-F10G, 3 μg/mL antigen, No Antigen Value 3752): 2389 RLU | Proliferation (luminescent ATP assay), Mean (Donor 3 GMA T-Cell Lines; T-cell line 165-F10G, 10 μg/mL antigen, No Antigen Value 3752): 2030 RLU | Proliferation (luminescent ATP assay), Mean (Donor 3 GMA T-Cell Lines; T-cell line 165-F10G, 30 μg/mL antigen, No Antigen Value 3752): 2583 RLU | Proliferation (luminescent ATP assay), Mean (Donor 3 GMA T-Cell Lines; T-cell line 165-H11G, 1 μg/mL antigen, No Antigen Value 1485): 2279 RLU | Proliferation (luminescent ATP assay), Mean (Donor 3 GMA T-Cell Lines; T-cell line 165-H11G, 3 μg/mL antigen, No Antigen Value 1485): 2118 RLU | Proliferation (luminescent ATP assay), Mean (Donor 3 GMA T-Cell Lines; T-cell line 165-H11G, 10 μg/mL antigen, No Antigen Value 1485): 2418 RLU | Proliferation (luminescent ATP assay), Mean (Donor 3 GMA T-Cell Lines; T-cell line 165-H11G, 30 μg/mL antigen, No Antigen Value 1485): 2296 RLU | proliferation response to non-canonical peptides (Donor 3 COP T-Cell Lines; 165-E3C, separate experiment): did not react

L-glutamic acid polymer with L-alanine, L-lysine and L-tyrosine, acetate (salt) [GA]
cytokine secretion, dose comparison (Donor 1 COP T-Cell Lines): highest levels of cytokines
